In patent publication US20180125993A1 (BEIJING COTIMES BIOTECH COMPANY LIMITED, priority 2014, published 2018):

Tests used:
[1] = test system: 7402; assay: In vitro cytotoxic sensitivity of CTB006; format: cell-based, human; details: 7402, Liver cancer
[2] = test system: Daudi; assay: In vitro cytotoxic sensitivity of CTB006; format: cell-based, human; details: B cell lymphoma
[3] = test system: colon cancer, CS263, 1#; assay: Patients primary tumor tissue subcutaneous model (Day 35 after treatment); format: in vivo, nude mice; details: HuCTB006 10 mg/kg i.v. QW × 4w
Excerpt: Fresh primary tumor tissues from patients were implanted in NOD/SCID mice's flank, which developed into a primary tumor, which was then transferred to the nude mice's flank to allow the tumor reaching an exponential growth phase, and the tumor was named 1# tumor, and so on. When the tumor volume and number reached passage requirements, they were implanted into the right flank of nude mice. When the tumors' average volumes reached 100-200 mm^3, the mice were grouped.
The bodyweight and major/minor axis of mice were measured twice a week, and Tumor Growth Inhibition (TGI) and tumor volume were calculated same as in 5.1.5. In addition, to evaluate the synergetic effect of drug combination in tumor growth, Jin Zhengjun Q value judgment method was used with the follow formula: Q=Ea+b/(Ea+Eb−Ea×Eb). Ea+b is the inhibition ratio of drug combination, Ea and Eb are the inhibition ratio of each of drug treatment when it is administered alone. […] The animals were monitored, and when the experiments were concluded, mice were sacrificed and tumors were extracted and weighted. All the animal experiments confer to the regulations of animal's welfare and the management of experimental animal usage.
Tumor volumes were represented with average±standard error. Data analysis was done using Spss16.0, One-Way ANOVA, LSD (homogeneity of variance) or Dunnett T3 (non-homogeneity of variance). […] P<0.05 represents significant difference.

[4] = test system: BT474; assay: In vitro cytotoxic sensitivity of CTB006; format: cell-based, human; details: BT474, Breast cancer
[5] = test system: HCC1954; assay: In vitro cytotoxic sensitivity of CTB006; format: cell-based, human; details: HCC1954, Breast cancer
[6] = test system: Capan-1; assay: In vitro cytotoxic sensitivity of CTB006; format: cell-based, human; details: Capan-1, Pancreatic cancer
[7] = test system: ASPC-1; assay: In vitro cytotoxic sensitivity of CTB006; format: cell-based, human; details: ASPC-1, Pancreatic cancer
[8] = test system: MIA-PaCa-2; assay: Human pancreatic cancer MIA-PaCa-2 subcutaneous model (34 days of treatment); details: for Tumor regression: treatment groups
Protocol: Tumor cells (i.e., MIA-PaCa-2, WiDr, H2122, colo205) were inoculated in nude mice's flank at 5×10^6 cells per mouse. The mice were grouped when the average volume of tumors reached about 100˜200 mm^3. “QW”=weekly dose. “Q3d”=dosed every third day. “BiW”=biweekly.
The bodyweight and major/minor axis of the mice were measured twice a week, and the tumor volumes were calculated using the formula: Tumor volume=1/2×major axis×minor axis. […] “T” represents average tumor volume of the experimental group (cm^3), and “C” represents average tumor volume of the control group (cm^3). The animals were monitored at all times. The bodyweight and major/minor axis or mice were measured twice a week. When the experiments were concluded, mice were sacrificed and tumors were extracted and weighted.

[9] = test system: BGC823; assay: In vitro cytotoxic sensitivity of CTB006; format: cell-based, human; details: BGC823, Stomach cancer
[10] = test system: HT1080; assay: In vitro cytotoxic sensitivity of CTB006; format: cell-based, human; details: HT1080, Fibrosarcoma
[11] = test system: A427; assay: In vitro cytotoxic sensitivity of CTB006; format: cell-based, human; details: A427, Lung cancer
[12] = test system: N87; assay: In vitro cytotoxic sensitivity of CTB006; format: cell-based, human; details: N87, Stomach cancer
[13] = target: T1, DR4-His-EC (Homo sapiens, UniProt O00220); assay: Binding specificity by chemiluminescent enzyme immunoassay (CLEIA); details: antibody 200, 40 and 8 ng/mL; 1 hour, 37° C.
T1 construct: His; made in house; host or cells: E. coli
T1 sequence (O00220 24-468): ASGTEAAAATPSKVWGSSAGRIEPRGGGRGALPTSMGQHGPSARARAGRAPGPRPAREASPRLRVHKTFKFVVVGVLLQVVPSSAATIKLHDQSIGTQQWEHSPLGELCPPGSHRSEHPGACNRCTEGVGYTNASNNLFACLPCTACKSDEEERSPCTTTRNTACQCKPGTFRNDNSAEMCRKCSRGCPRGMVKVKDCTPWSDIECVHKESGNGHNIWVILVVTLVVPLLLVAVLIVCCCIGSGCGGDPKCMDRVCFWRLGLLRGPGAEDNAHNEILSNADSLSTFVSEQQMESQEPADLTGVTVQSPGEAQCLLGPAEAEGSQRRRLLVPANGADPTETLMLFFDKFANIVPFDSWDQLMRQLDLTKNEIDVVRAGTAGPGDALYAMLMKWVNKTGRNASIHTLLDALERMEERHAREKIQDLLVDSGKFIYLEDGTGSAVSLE
Protocol: (§1) The binding specificity of HuCTB006 was evaluated by chemiluminescent enzyme immunoassay (CLEIA).
(§2) HuCTB006 was diluted into 200, 40 and 8 ng/mL and then added to the wells. After 1 hour incubation in 37° C., the plate was washed. The binding of HuCTB006 with immobilized antigens was detected with HRP labeled secondary antibody and a substrate solution.

[14] = target: T2, OPG-His (recombinant human osteroprotegerin/TNFRSF11B) (Homo sapiens, UniProt O00300); assay: as above; details: antibody 200, 40 and 8 ng/mL; 1 hour, 37° C.
T2 construct: His; purchased Wuxi Pharmatech Co. Ltd
T2 sequence (O00300 22-401): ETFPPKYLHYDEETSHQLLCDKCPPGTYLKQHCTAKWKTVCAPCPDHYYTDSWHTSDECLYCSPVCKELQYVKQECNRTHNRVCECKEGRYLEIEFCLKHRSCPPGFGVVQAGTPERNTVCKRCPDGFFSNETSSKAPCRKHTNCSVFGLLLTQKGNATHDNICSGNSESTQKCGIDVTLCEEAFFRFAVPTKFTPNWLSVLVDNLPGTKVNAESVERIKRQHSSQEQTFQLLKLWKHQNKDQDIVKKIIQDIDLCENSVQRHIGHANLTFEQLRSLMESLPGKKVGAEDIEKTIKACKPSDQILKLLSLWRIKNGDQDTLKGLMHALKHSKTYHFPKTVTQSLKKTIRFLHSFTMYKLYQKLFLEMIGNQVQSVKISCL
Protocol: as §1, §2

[15] = HuCTB006 0.2 mg/kg i.v. QW × 6W
[16] = HuCTB006 0.6 mg/kg i.v. QW × 6W
[17] = repeated experiment, HuCTB006 0.2 mg/kg
[18] = repeated experiment, HuCTB006 0.6 mg/kg
[19] = repeated experiment, HuCTB006 1 mg/kg
[20] = repeated experiment, HuCTB006 10 mg/kg

HuCTB006: Monospecific humanized chimeric monoclonal antibody directed to TRAIL-R2 receptor; heavy chain SEQ ID NO: 14, light chain SEQ ID NO: 12
In vitro cytotoxic sensitivity of CTB006 [1]: Non-responder | In vitro cytotoxic sensitivity of CTB006 [2]: Non-responder | T/C % (Calculated using tumor volumes) [3]: 89.71% | TGI (Calculated using tumor volumes) [3]: 9.42% | TGI (Calculated using tumor weight) [3]: 16.11% | Time of tumor volume changed significantly [3]: 13 | Tumor Volume Mean ± SEM [3]: 0.96 ± 0.22 cm^3 | Tumor weight Mean ± SEM [3]: 0.67 ± 0.16 g | TGI (Calculated using tumor volumes) ([3]; 10 mg/kg): 9.42% | TGI (Calculated using tumor weight) ([3]; 10 mg/kg): 16.11% | In vitro cytotoxic sensitivity of CTB006 [4]: Non-responder | In vitro cytotoxic sensitivity of CTB006 [5]: Non-responder | In vitro cytotoxic sensitivity of CTB006 [6]: Non-responder | In vitro cytotoxic sensitivity of CTB006 [7]: Non-responder | T/C % (Calculated using tumor volumes) [8, 15]: 52.01% | Time of tumor volume changed significantly [8, 15]: 13 days after first treatment | Tumor Volume Mean ± SEM [8, 15]: 1.76 ± 0.15 cm^3 | Tumor weight Mean ± SEM [8, 15]: 0.79 ± 0.07 g | T/C % (Calculated using tumor volumes) [8, 16]: 38.43% | Tumor Volume Mean ± SEM [8, 16]: 1.27 ± 0.43 cm^3 | Tumor weight Mean ± SEM [8, 16]: 0.54 ± 0.21 g | T/C % (Calculated using tumor volumes) ([8]; HuCTB006 1 mg/kg i.v. QW × 6W): 24.02% | Tumor Volume Mean ± SEM ([8]; HuCTB006 1 mg/kg i.v. QW × 6W): 0.88 ± 0.35 cm^3 | Tumor weight Mean ± SEM ([8]; HuCTB006 1 mg/kg i.v. QW × 6W): 0.37 ± 0.19 g | T/C % (Calculated using tumor volumes) ([8]; HuCTB006 10 mg/kg i.v. QW × 6W): 23.01% | Time of tumor volume changed significantly ([8]; HuCTB006 10 mg/kg i.v. QW × 6W): 7^2 days after first treatment | Tumor Volume Mean ± SEM ([8]; HuCTB006 10 mg/kg i.v. QW × 6W): 0.76 ± 0.22 cm^3 | Tumor weight Mean ± SEM ([8]; HuCTB006 10 mg/kg i.v. QW × 6W): 0.19 ± 0.08 g | Tumor regression ([8]; first experiment): some animals of HuCTB006 groups showed tumor regression | Tumor regression ([8]; repeated experiment): some animals of HuCTB006 groups also showed tumor regression | TGI calculated based on the tumor volume [8, 17]: 59.52% | TGI calculated based on the tumor weight [8, 17]: 72.38% | TGI calculated based on the tumor volume [8, 18]: 85.35% | TGI calculated based on the tumor weight [8, 18]: 91.39% | TGI calculated based on the tumor volume [8, 19]: 87.52% | TGI calculated based on the tumor weight [8, 19]: 92.02% | TGI calculated based on the tumor volume [8, 20]: 58.99% | TGI calculated based on the tumor weight [8, 20]: 71.93% | Bodyweights of mice ([8]; treatment groups over the time): slow increase over the time | In vitro cytotoxic sensitivity of CTB006 [9]: Partial-responder | In vitro cytotoxic sensitivity of CTB006 [10]: Non-responder | In vitro cytotoxic sensitivity of CTB006 [11]: Non-responder | In vitro cytotoxic sensitivity of CTB006 [12]: Non-responder | cross-reaction with coated antigen [13]: no cross-reaction | cross-reaction with coated antigen [14]: no cross-reaction
